Measured values published in patent EP4603105A1, “PHARMACEUTICAL COMPOSITION CONTAINING CYCLIC COMPOUND HAVING SELECTIVE KRAS INHIBITORY EFFECT AGAINST HRAS AND NRAS” (CHUGAI SEIYAKU KABUSHIKI KAISHA, priority 2022, dated 2024).
pIC50: −log10 of the molar value. Like-named read-outs stand apart in the source and are kept apart here. Where a SMILES comes first, the peptide text is derived from it. Bridges are numbered along the chain shown (N, C = ends). [ ]: non-standard residue; d: D form. The star is where a group is joined. hPhe(3-Cl-4-CF3) = N[C@@H](CCc1ccc(C(F)(F)F)c(Cl)c1)C(=O)O; NPrPhe(4-CF3) = CCCN[C@@H](Cc1ccc(C(F)(F)F)cc1)C(=O)O; NMeGly(cPent) = CN[C@H](C(=O)O)C1CCCC1; Hyp = O=C(O)[C@@H]1C[C@@H](O)CN1; NMeD = CN[C@@H](CC(=O)O)C(=O)O; NMeL = CN[C@@H](CC(C)C)C(=O)O; Morpholide = C1CN(*)CCO1; NAllylGly = C=CCNCC(=O)O; Ac5c = NC1(C(=O)O)CCCC1; Ac4c = NC1(C(=O)O)CCC1; NEtG = CCNCC(=O)O; Sar = CNCC(=O)O

Assays:
[1] = molecular target: GDP-bound NRAS wild-type protein (Homo sapiens, UniProt P01111); experiment: Binding to NRAS by surface plasmon resonance (SPR), KD and KD ratio to KRAS
GDP-bound NRAS wild-type protein, sequence (P01111 whole entry): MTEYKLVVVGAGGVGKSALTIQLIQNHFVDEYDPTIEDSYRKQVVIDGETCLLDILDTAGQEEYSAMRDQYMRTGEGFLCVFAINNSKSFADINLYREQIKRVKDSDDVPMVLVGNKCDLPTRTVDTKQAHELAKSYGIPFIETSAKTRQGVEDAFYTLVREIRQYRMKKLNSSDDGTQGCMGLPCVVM
Summary of the method: (§1)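 Running buffer contained 10 µM GDP and 10 mM MgCl2 to keep RAS in the GDP state, with 4% DMSO at pH 7.4. Compounds were flowed at 100 µL/min in 75 s steps of rising concentration over captured biotin-Avi RAS at 30°C. Sensorgrams were fitted 1:1 for KD.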

HRAS wild-type protein = HRAS wild-type protein (Homo sapiens, UniProt P01112); experiment: Binding to HRAS by surface plasmon resonance (SPR), KD and KD ratio to KRAS
HRAS wild-type protein, sequence (P01112 whole entry): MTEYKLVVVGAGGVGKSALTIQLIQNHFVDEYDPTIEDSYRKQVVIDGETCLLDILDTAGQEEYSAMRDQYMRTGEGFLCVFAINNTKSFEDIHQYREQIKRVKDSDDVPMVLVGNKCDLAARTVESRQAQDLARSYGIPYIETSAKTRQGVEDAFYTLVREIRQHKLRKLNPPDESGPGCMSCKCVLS
Summary of the method: as §1

[2] = tested on: human lung cancer strain NCI-H441; format: cell-based
Summary of the method: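 Step one: dispense the test compound in serial DMSO dilutions. Step three: add the reagent and measure […].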

[3] = ratio of the KD value with respect to GDP-bound NRAS wild-type protein to the KD value with respect to KRAS
[4] = ratio of the KD value with respect to HRAS wild-type protein to the KD value with respect to KRAS
[5] = ratio of KD for GDP-bound NRAS wild-type protein to KD for KRAS
[6] = ratio of KD for HRAS wild-type protein to KD for KRAS
[7] = ratio of KD value for GDP-bound NRAS wild-type protein to KD value for KRAS (SPR)
[8] = ratio of KD value for HRAS wild-type protein to KD value for KRAS (SPR)

Structure (SMILES) | NRAS /KRAS [1, 3] | HRAS /KRAS (HRAS wild-type protein; [4]) | pIC50 [2] | NRAS /KRAS [1, 5] | HRAS /KRAS (HRAS wild-type protein; [6]) | NRAS /KRAS [1, 7] | HRAS /KRAS (HRAS wild-type protein; [8]) | pIC50 ([2]; NCI-H441 cells, 4 days, CellTiter-Glo, read-out: NCl-H441 IC50)
CCO[C@@H]1C[C@H]2C(=O)NC3(CC(C)(C)C3)C(=O)N(C)[C@@H](C3CCCC3)C(=O)N(C)[C@H](C(=O)N(C)C)CC(=O)N(C)[C@@H](C3CCC3)C(=O)N[C@@H]([C@@H](C)CC)C(=O)N(C)CC(=O)N(C)[C@H]3C/C=C\CCN(C3=O)[C@@H](Cc3ccc(C(F)(F)F)cc3)C(=O)N(C)CC(=O)N[C@@H](CCc3ccc(C(F)(F)F)c(OC)c3)C(=O)N2C1 [PP1987] | A (a compound having 10 or more and less than 20 is denoted as A) | A (a compound having 10 or more and less than 20 is denoted as A) | 8.18 |  |  |  |  | 
CCCN(C)C(=O)[C@@H]1CC(=O)N(C)[C@@H](CCOC)C(=O)N[C@@H]([C@@H](C)CC)C(=O)N(C)CC(=O)N(C)[C@H]2C/C=C\CCN(C2=O)[C@@H](Cc2ccc(C(F)(F)F)cc2)C(=O)N(C)CC(=O)N[C@@H](CCc2ccc(C(F)(F)F)c(OC)c2)C(=O)N2C[C@H](OCC)C[C@H]2C(=O)NC2(CC(C)(C)C2)C(=O)N(C)[C@@H](C2CCCC2)C(=O)N1C [PP1975] | A (a compound having 10 or more and less than 20 is denoted as A) | A (a compound having 10 or more and less than 20 is denoted as A) | 7.87 |  |  |  |  | 
CCO[C@@H]1C[C@H]2C(=O)NC3(CC(C)(C)C3)C(=O)N(C)[C@@H](CC3CCC3)C(=O)N(C)[C@H](C(=O)N(C)C)CC(=O)N(C)[C@@H](COC)C(=O)N[C@@H]([C@@H](C)CC)C(=O)N(C3CC3)CC(=O)N(C)[C@H]3C/C=C\CCN(C3=O)[C@@H](Cc3ccc(C(F)(F)F)cc3)C(=O)N(C)CC(=O)N[C@@H](CCc3ccc(Cl)c(Cl)c3)C(=O)N2C1 [PP2821] |  |  | 7.04 | A (a compound having 10 or more and less than 20 is denoted as A) | A (a compound having 10 or more and less than 20 is denoted as A) |  |  | 
CC[C@H](C)[C@@H]1NC(=O)[C@H](CC(C)C)N(C)C(=O)C[C@@H](C(=O)N2CCOCC2)N(C)C(=O)[C@H](C2CCCC2)N(C)C(=O)C2(CCCC2)NC(=O)[C@@H]2CCCN2C(=O)[C@H](CCc2cc(F)c(C(F)(F)F)c(F)c2)NC(=O)CN(C)C(=O)[C@H](Cc2ccc(C(F)(F)F)cc2)N2CCCC[C@@H](C2=O)N(C)C(=O)CN(CC)C1=O [PP0545] | B (a compound having 3 or more and less than 10 is denoted as B) | B (a compound having 3 or more and less than 10 is denoted as B) | 7.85 |  |  |  |  | 
CCCN1C(=O)CN(C)C(=O)CN(CC)C(=O)[C@H]([C@@H](C)CC)NC(=O)[C@H](CC(C)C)N(C)C(=O)C[C@@H](C(=O)N2CCOCC2)NC(=O)[C@H](C2CCCC2)N(C)C(=O)C2(CCC2)NC(=O)[C@@H]2C[C@@H](OCC)CN2C(=O)[C@H](CCc2ccc(C(F)(F)F)c(Cl)c2)NC(=O)CN(C)C(=O)[C@@H]1Cc1ccc(C(F)(F)F)cc1 [PP0336] ([NMeL]I[NEtG][Sar][NPrPhe(4-CF3)][Sar][hPhe(3-Cl-4-CF3)][Hyp](Et)[Ac4c][NMeGly(cPent)]D-Morpholide; lactam N-11) |  |  | 7.14 | B (a compound having 3 or more and less than 10 is denoted as B) | B (a compound having 3 or more and less than 10 is denoted as B) |  |  | 
CCO[C@@H]1C[C@H]2C(=O)NC3(CCC3)C(=O)N(C)[C@@H](C3CCCC3)C(=O)N(C)[C@H](C(=O)N(C)C)CC(=O)N(C)[C@@H](CC)C(=O)N[C@@H]([C@@H](C)CC)C(=O)N(C)CC(=O)N(C)[C@H]3CCCCN(C3=O)[C@@H](Cc3ccc(C(F)(F)F)cc3)C(=O)N(C)CC(=O)N[C@@H](CCc3cc(F)c(C(F)(F)F)c(F)c3)C(=O)N2C1 [PP0693] | C (A compound having a KD ratio of 0.1 or more and less than 3 is denoted as C) | C (A compound having a KD ratio of 0.1 or more and less than 3 is denoted as C) | 8.42 |  |  |  |  | 
CC[C@H](C)[C@@H]1NC(=O)[C@H](CC)N(C)C(=O)C[C@@H](C(=O)N(C)C)N(C)C(=O)[C@H](C2CCCC2)N(C)C(=O)C2(CCC2)NC(=O)[C@@H]2CCCCN2C(=O)[C@H](CCc2cc(F)c(C(F)(F)F)c(F)c2)NC(=O)CN(C)C(=O)[C@H](Cc2ccc(C(F)(F)F)cc2)N2CCCCC[C@@H](C2=O)N(C)C(=O)CN(C)C1=O [PP0655] | B (a compound having 3 or more and less than 10 is denoted as B) | B (a compound having 3 or more and less than 10 is denoted as B) | 6.90 |  |  |  |  | 
C=CCN1CC(=O)N(C)CC(=O)N(CCC)[C@@H](Cc2ccc(C(F)(F)F)cc2)C(=O)N(C)CC(=O)N[C@@H](CCc2ccc(C(F)(F)F)c(Cl)c2)C(=O)N2CCC[C@H]2C(=O)NC2(CCCC2)C(=O)N(C)[C@@H](C2CCCC2)C(=O)N(C)[C@H](C(=O)N2CCOCC2)CC(=O)N(C)[C@@H](CC(C)C)C(=O)N[C@@H]([C@@H](C)CC)C1=O [PP0749] ([NMeL]I[NAllylGly][Sar][NPrPhe(4-CF3)][Sar][hPhe(3-Cl-4-CF3)]P[Ac5c][NMeGly(cPent)][NMeD]-Morpholide; lactam N-11) | B (a compound having 3 or more and less than 10 is denoted as B) | C (A compound having a KD ratio of 0.1 or more and less than 3 is denoted as C) | 7.70 |  |  |  |  | 
CCC[C@H]1C(=O)N[C@@H]([C@@H](C)CC)C(=O)N(C)CC(=O)N(C)[C@H]2C/C=C\CCN(C2=O)[C@@H](Cc2ccc(C)cc2)C(=O)N(C)CC(=O)N[C@@H](CCc2cc(F)c(C(F)(F)F)c(F)c2)C(=O)N2C[C@H](OCC)C[C@H]2C(=O)N(C)C2(CCC2)C(=O)N(C)[C@@H](C2CCCC2)C(=O)N(C)[C@H](C(=O)N(C)C)CC(=O)N1C [PP1793] |  |  | 8.62 |  |  | A (a compound having 10 or more and less than 20 is denoted as A) | B (a compound having 3 or more and less than 10 is denoted as B) | 
CCC[C@H]1C(=O)N[C@@H]([C@@H](C)CC)C(=O)N(C)CC(=O)N(C)[C@H]2CCCCN(C2=O)[C@@H](Cc2ccc(C(F)(F)F)cc2)C(=O)N(C)CC(=O)N[C@@H](CCc2cc(F)c(C(F)(F)F)c(F)c2)C(=O)N2C[C@H](OCC)C[C@H]2C(=O)NC2(CCC2)C(=O)N(C)[C@@H](C2CCCC2)C(=O)N(C)[C@H](C(=O)N2CCOCC2)CC(=O)N1C [PP0709] | C (A compound having a KD ratio of 0.1 or more and less than 3 is denoted as C) | B (a compound having 3 or more and less than 10 is denoted as B) | 9.00 |  |  |  |  | 
CCOC[C@H]1C(=O)N[C@@H]([C@@H](C)CC)C(=O)N(C)CC(=O)N(C)[C@H]2C/C=C\CCN(C2=O)[C@@H](Cc2ccc(C(C)(F)F)cc2)C(=O)N(C)CC(=O)N[C@@H](CCc2ccc(C(F)(F)F)c(OC)c2)C(=O)N2C[C@@H](C)C[C@H]2C(=O)NC2(CC(C)(C)C2)C(=O)N(C)[C@@H](C2CCCC2)C(=O)N(C)[C@H](C(=O)N(C)CC)CC(=O)N1C [PP2699] |  |  |  | A (a compound having 10 or more and less than 20 is denoted as A) | B (a compound having 3 or more and less than 10 is denoted as B) |  |  | 7.85
CCC[C@H]1C(=O)N[C@@H]([C@@H](C)CC)C(=O)N(C)CC(=O)N(C)[C@H]2C/C=C\CCN(C2=O)[C@@H](Cc2ccc(C(F)(F)F)cc2)C(=O)N(C)CC(=O)N[C@@H](CCc2cc(F)c(C(F)F)c(F)c2)C(=O)N2C[C@H](OCC)C[C@H]2C(=O)NC2(CC(C)(C)C2)C(=O)N(C)[C@@H](C2CCCC2)C(=O)N(C)[C@H](C(=O)N(C)C)CC(=O)N1C [PP2780] |  |  | 7.75 | A (a compound having 10 or more and less than 20 is denoted as A) | A (a compound having 10 or more and less than 20 is denoted as A) |  |  | 
CCO[C@@H]1C[C@H]2C(=O)NC3(CC(C)(C)C3)C(=O)N(C)[C@@H](C3CCCC3)C(=O)N(C)[C@H](C(=O)N(C)C)CC(=O)N(C)[C@@H](CC(C)C)C(=O)N[C@@H]([C@@H](C)CC)C(=O)N(C)CC(=O)N(C)[C@H]3C/C=C\CCN(C3=O)[C@@H](Cc3ccc4c(c3)CCC4(F)F)C(=O)N(C)CC(=O)N[C@@H](CCc3ccc(C(F)(F)F)c(OC)c3)C(=O)N2C1 [PP2695] |  |  | 8.42 | A (a compound having 10 or more and less than 20 is denoted as A) | B (a compound having 3 or more and less than 10 is denoted as B) |  |  | 
C#CC[C@H]1C(=O)N[C@@H]([C@@H](C)CC)C(=O)N(C)CC(=O)N(C)[C@H]2C/C=C\CCN(C2=O)[C@@H](Cc2ccc(C(F)(F)F)cc2)C(=O)N(C)CC(=O)N[C@@H](CCc2cc(F)c(C(F)(F)F)c(F)c2)C(=O)N2C[C@@H](C)C[C@H]2C(=O)NC2(CC(C)(C)C2)C(=O)N(C)[C@@H](C2CCCC2)C(=O)N(C)[C@H](C(=O)N(C)CCC)CC(=O)N1C [PP2076] | A (a compound having 10 or more and less than 20 is denoted as A) | A (a compound having 10 or more and less than 20 is denoted as A) | 7.81 |  |  |  |  | 
CCO[C@@H]1C[C@H]2C(=O)NC3(CC(C)(C)C3)C(=O)N(C)[C@@H](C3CCCC3)C(=O)N(C)[C@H](C(=O)N(C)C)CC(=O)N(C)[C@@H](CC)C(=O)N[C@@H]([C@@H](C)CC)C(=O)N(C)CC(=O)N(C)[C@H]3C/C=C\CCN(C3=O)[C@@H](Cc3ccc(C)cc3)C(=O)N(C)CC(=O)N[C@@H](CCc3ccc(C(F)(F)F)c(OC)c3)C(=O)N2C1 [PP1873] |  |  | 8.07 |  |  | A (a compound having 10 or more and less than 20 is denoted as A) | B (a compound having 3 or more and less than 10 is denoted as B) | 
